Method: Referring to FIG. 1, an epidermis 1506 and a dermis 1508 are collectively referred to as a superficial skin layer 1520 herein. An area of a skin 1500 where cold is applied is referred to herein as a cold site. […] Skin blood flow rate in both the cold site and normothermic site was measured using a laser Doppler perfusion imaging system. Studies also compared plasma concentration of drug 1510 in subjects at the cold site and the normothermic site. […] In one exemplary experiment skin blood flow was measured 15 min after application of cold, and every 15 min thereafter for a total of 3 hours.

O=C(O)c1ccccc1O [salicylic acid]
concentration of drug in superficial skin layer of cold site, higher compared to normothermic site: about 80% | plasma concentration at cold site, lower compared to normothermic site (human, in vivo): about 60% | plasma concentration, cold site (human, in vivo): about 45 nmol/ml
